Source: article PMC12298827, “Subchronic Toxicities of Four Per- and Polyfluoroalkyl Substances (PFASs) by Oral Exposure in Sprague–Dawley Rats” (Toxics, 2025)

System: male and female Sprague–Dawley rats
Assay: 90-day subchronic oral gavage toxicity study
Type: in vivo, rat
Conditions: male
Description: Subchronic (90-day) studies were performed in accordance with current U.S. EPA’s Toxic Substances Control Act Good Laboratory Practice (GLP) Standards, with the following two general exceptions to the GLP guidelines: Analysis of the dose formulations was conducted according to RTI-approved Standard Operating Procedures, and corn oil (the vehicle) was not characterized (certificate of analysis from the vendor is available in the appendices to the final reports). Male and female Sprague–Dawley rats (five dose levels plus a control, n = 10/sex/dose group, corn oil vehicle dose volume of 3 mL/kg; oral gavage) were used in these studies, and the rats were euthanized on SD 91. The dose levels for PFHI were 0, 12.5, 25, 50, 100, and 200 mg/kg-day. The dose levels for MHFPK were 0, 18.8, 37.5, 75, 150, and 300 mg/kg-day. The dose levels for PFNAC were 0, 0.1, 0.3, 1.0, 3.0, and 10 mg/kg-day for male rats and 0, 0.3, 1.0, 3.0, 10, and 30 mg/kg-day for female rats. For CTFPA, the dose levels were 0, 1.9, 3.8. 7.5, 15, and 30 mg/kg-day for male rats and 0, 6.3, 12.5, 25, 50, and 100 mg/kg-day for female rats. For each PFAS, three batches of dosing solution were prepared. The time between the batch preparation of the dosing solutions ranged between 29 and 39 days. Blood samples were collected from all the rats at termination for serum chemistry, hematology, coagulation, and the analysis of the parent PFAS chemical in the plasma. In vivo data collection and further detail on the endpoints examined postmortem are described below.
The rats were observed twice daily for morbidity and mortality throughout the study period. At least once prior to randomization to test groups and weekly thereafter, the rats were physically examined, and bodyweights were obtained. Feed consumption was quantified weekly starting on SD 1.
Neurotoxicity was evaluated using the functional observational battery (FOB) and measuring locomotor activity (LMA) 2–4 h post dosing on SDs 78–80 and 80–84, respectively. For both the 14- and 90-day studies, an ophthalmologic examination was conducted prior to randomization and near the end of the study, using indirect ophthalmoscopy and slit–lamp biomicroscopy (as needed) after the administration of a mydriatic solution.
Hematology, biochemistry, and coagulation endpoints were measured at the termination of the study. A Siemens Advia 2120i hematology analyzer (Siemens Healthineers, Erlangen, Germany) was used to measure (or calculate) the parameters related to the complete blood count, leukocyte differential count, and reticulocyte count. The hematology parameters are listed and described in Table 2. The prothrombin time […] and activated partial thromboplastin time (APTT) were measured using an Instrumentation Laboratory (Bedford, MA, USA) ACL Elite Pro coagulation analyzer (laser–nephelometric centrifugal method).
At necropsy, the rats were visually examined for external abnormalities and organ weights (absolute and relative to the BW and brain weight), which were recorded (paired organs weighed together). The tissues were preserved in 10% neutral buffered formalin (NBF), except for the ocular tissues, testes, and epididymides, which were preserved in modified Davidson’s fixative and later transferred to 10% NBF. Bone marrow smears were prepared from the femurs, and the slides were air-dried, fixed in methanol, stained, and stored at room temperature for possible future evaluation. The preserved tissues were embedded in paraffin, sectioned, stained with hematoxylin and eosin, and examined by a board-certified veterinary pathologist.
Statistical analysis was performed using Provantis™ Version 10 or greater (Instem LSS, Limited; Stone, Staffordshire, UK). Differences among the treatment groups compared to the control were evaluated using one-way analysis of variance (ANOVA) if the underlying assumptions of a normal distribution (Shapiro–Wilk test) and the homogeneity of the variance (Levene’s test) were satisfied. […]

`O=C(O)C(F)(Cl)C(F)(F)F` (stereo not drawn) [CTFPA, 2-Chloro-2,3,3,3-tetrafluoropropanoic acid] showed an A/G (7.5 mg/kg-day) of 1.05±0.14 ratio, an ALB (7.5 mg/kg-day) of 3.39 ± 0.32 g/dL and an ALPi (7.5 mg/kg-day) of 159.9±63.1 U/L. It also gave an APTT (7.5 mg/kg-day) of 14.52 s, a BUN (7.5 mg/kg-day) of 15.5 ± 2.2 mg/dL and a CHOL (7.5 mg/kg-day) of 74.2 ± 8.5 mg/dL. The GLOB (7.5 mg/kg-day) was 3.24 ± 0.19 g/dL, the GLUC (7.5 mg/kg-day) was 165.6 ± 25.1 mg/dL and the HCT (7.5 mg/kg-day) was 47.49±2.30%. The HGB (7.5 mg/kg-day) was 14.52 ± 0.72 g/dL, the “Kidney Weight” value (7.5 mg/kg-day) was 3.47 g and the “Kidney/Body Weight” value (7.5 mg/kg-day) was 0.56%. For the same compound, the “Kidney/Brain Weight” value (7.5 mg/kg-day) was 159%, the “Liver Weight” value (7.5 mg/kg-day) was 20.01 g and the “Liver/Body Weight” value (7.5 mg/kg-day) was 3.24%. For the same compound, the “Liver/Brain Weight” value (7.5 mg/kg-day) was 912%, the MPV (7.5 mg/kg-day) was 7.61 ± 0.38 fL and the PT (7.5 mg/kg-day) was 15.14 s. For the same compound, the “Total BW change” value (7.5 mg/kg-day) was 376.00 g, the “Total Food Consumed” value (7.5 mg/kg-day) was 2345 g and the “% BW Gain” value (15 mg/kg-day) was 135.14%. For the same compound, the “% Diff, % BW Gain” value (15 mg/kg-day) was 7.78%, the “% Diff, Total BW change” value (15 mg/kg-day) was 8.09% and the “% Diff, Total Food Consumed” value (15 mg/kg-day) was 14.6%. It also gave an A/G (15 mg/kg-day) of 1.16±0.11 ratio, an ALB (15 mg/kg-day) of 3.56 ± 0.21 g/dL and an ALPi (15 mg/kg-day) of 237.6±66.2 U/L. For the same compound, the APTT (15 mg/kg-day) was 12.89 s, the BUN (15 mg/kg-day) was 15.8 ± 2.4 mg/dL and the CHOL (15 mg/kg-day) was 63.6 ± 10.8 mg/dL. It also gave a GLOB (15 mg/kg-day) of 3.07 ± 0.19 g/dL, a GLUC (15 mg/kg-day) of 175.2 ± 15.8 mg/dL and an HCT (15 mg/kg-day) of 47.72±2.58%. For the same compound, the HGB (15 mg/kg-day) was 14.62 ± 0.84 g/dL, the “Kidney Weight” value (15 mg/kg-day) was 3.40 g and the “Kidney/Body Weight” value (15 mg/kg-day) was 0.58%. The “Kidney/Brain Weight” value (15 mg/kg-day) was 147%, the “Liver Weight” value (15 mg/kg-day) was 20.28 g and the “Liver/Body Weight” value (15 mg/kg-day) was 3.47%. For the same compound, the “Liver/Brain Weight” value (15 mg/kg-day) was 873%, the MPV (15 mg/kg-day) was 7.56 ± 0.43 fL and the PT (15 mg/kg-day) was 15.24 s. The “Total BW change” value (15 mg/kg-day) was 342.33 g, the “Total Food Consumed” value (15 mg/kg-day) was 2368 g and the “% BW Gain” value (30 mg/kg-day) was 121.40%. The “% Diff, % BW Gain” value (30 mg/kg-day) was -3.18%, the “% Diff, Total BW change” value (30 mg/kg-day) was -0.72% and the “% Diff, Total Food Consumed” value (30 mg/kg-day) was 10.33%. For the same compound, the A/G (30 mg/kg-day) was 1.19±0.12 ratio, the ALB (30 mg/kg-day) was 3.72 ± 0.22 g/dL and the ALPi (30 mg/kg-day) was 282.9±80.3 U/L. The APTT (30 mg/kg-day) was 12.13 s, the “Absolute and relative thymus weights” value (30 mg/kg-day) was “significantly increased” and the BUN (30 mg/kg-day) was 18.7 ± 2.7 mg/dL. The CHOL (30 mg/kg-day) was 68.5 ± 10.0 mg/dL, the GLOB (30 mg/kg-day) was 3.14 ± 0.22 g/dL and the GLUC (30 mg/kg-day) was 175.3 ± 23.2 mg/dL. For the same compound, the HCT (30 mg/kg-day) was 47.32±2.15%, the HGB (30 mg/kg-day) was 14.44 ± 0.69 g/dL and the “Kidney Weight” value (30 mg/kg-day) was 3.35 g. The “Kidney/Body Weight” value (30 mg/kg-day) was 0.60%, the “Kidney/Brain Weight” value (30 mg/kg-day) was 148% and the “Liver Weight” value (30 mg/kg-day) was 21.52 g. For the same compound, the “Liver/Body Weight” value (30 mg/kg-day) was 3.82%, the “Liver/Brain Weight” value (30 mg/kg-day) was 954% and the MPV (30 mg/kg-day) was 7.54 ± 0.47 fL. For the same compound, the PT (30 mg/kg-day) was 15.74 s, the “Total BW change” value (30 mg/kg-day) was 314.42 g and the “Total Food Consumed” value (30 mg/kg-day) was 2281 g.
